The nature of the series: gradient 5% acetonitrile 3 min, to 50% in 2 min, to 85% in 15 min, held 3 min, 100 µL/min. The note with it: column: Zorbax Extend-C18 2.1 x 50 mm; eluents: water / acetonitrile, 0.1% formic acid. The method in brief: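 Values are retention times taken from adduct peaks that software picked and an analyst inspected. The pure standards were run as mixtures of ~100 molecules on HPLC linked to a quadrupole time-of-flight mass spectrometer, in positive and negative ionization mode. A Zorbax Extend-C18 column (2.1 × 50 mm, 1.8 μm) was used at 100 μL/min with water and acetonitrile, each including 0.1% formic acid.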
In the case of `CCn1c(=O)n(CC)c2cc(N3CCCC3)c(NC(=O)CC(=O)OC)cc21`, the RP-LC retention time was 583 s.

With `Cc1cc(OCC(=O)NCc2cccs2)nc(-c2ccc(F)cc2)n1`, the RP-LC retention time is 885 s.

Regarding `O=C(CCn1nnc2cc(-c3noc(COc4ccc(F)cc4)n3)ccc21)N1CCCCCC1`, the RP-LC retention time was 990 s.

`O=C(c1cn(-c2cc(-c3nc(C4CC4)no3)ccn2)cn1)N1CCCCCC1` came in with an RP-LC retention time of 883 s.

In turn, `O=C(C1CCCN1c1nnc(N2CCCC2=O)s1)N1CCN(c2ccccn2)CC1` (stereo not drawn) had an RP-LC retention time of 547 s.

In turn, `COc1ccc(-c2nc(COc3cc(C)c4c(C)nn(C)c4n3)c(C)o2)cc1` yielded an RP-LC retention time of 1120 s.

The compound `COc1ccc(NC(=O)Cn2c(N3CCCCC3)nc(C)cc2=O)cc1F` gave an RP-LC retention time of 717 s.

Consider `CCOc1ccc(C(O)CN2CCN(c3ccccn3)CC2)cc1Cl` (stereo not drawn), for which the RP-LC retention time was 591 s.

As to `O=C(CCC1CCCN(S(=O)(=O)c2ccccc2F)C1)NCc1cc(F)ccc1F` (stereo not drawn), the RP-LC retention time is 966 s.

Compound `Cc1cc(NC(=O)c2ccc3c(c2)nnn3Cc2ccccc2)no1` displayed an RP-LC retention time of 819 s.

`O=C(CCS(=O)(=O)c1ccccc1)N1CCCc2ccccc21` displayed an RP-LC retention time of 779 s.

Compound `O=C(NC1CCN(Cc2ccccc2)CC1)C1CCN(c2ncnc3c2oc2ccccc23)CC1` yielded an RP-LC retention time of 603 s.

`COCCn1c(C2CCN(C(=O)c3cccc(Cl)c3)C2)nc2ccncc21` (stereo not drawn) came in with an RP-LC retention time of 561 s.

With `Cc1sc(-c2nnc(C(=O)N3CCCCC3)o2)cc1S(=O)(=O)NC1CC1`, the RP-LC retention time was 824 s.

Compound `Fc1cc(F)c2nc(NCCCn3ccnc3)sc2c1` gave an RP-LC retention time of 548 s.

`Cc1ccc(C(=O)NCc2nn(C)c3ccccc23)cc1` gave an RP-LC retention time of 810 s.

`CCOc1ccc(S(=O)(=O)N2CCC3(CC2)c2nccn2CCN3C)cc1` displayed an RP-LC retention time of 651 s.

Compound `COc1cccc(-c2nc3sc(C(=O)N(C)C)c(C)n3c2NC(C)(C)C)c1` came in with an RP-LC retention time of 773 s.

In turn, `O=c1oc2c(-c3ccc([N+](=O)[O-])cc3)cc(O)cc2s1` came in with an RP-LC retention time of 829 s.

As to `COc1cccc(CNC(=O)Cn2ncc3c(c2=O)N(C2CC2)C(=O)CS3)c1`, the RP-LC retention time worked out at 671 s.

Regarding `Cc1cc2c(N3CCCC(C(=O)NCc4ccccc4Br)C3)nccc2s1` (stereo not drawn), the RP-LC retention time was determined as 714 s.

Take `Cc1ccc(-c2noc(-c3nn(CC(=O)NC(C)C)c4ccccc34)n2)cc1`: the RP-LC retention time was 1080 s.

`O=C1CCCN1CCCN1C(=O)[C@H]2CN(Cc3cccc(Cl)c3F)C[C@H]2C1=O` had an RP-LC retention time of 660 s.

Consider `O=C(c1cccc(N2CCCS2(=O)=O)c1)N1CCN(c2ccccn2)CC1`, for which the RP-LC retention time amounted to 578 s.

`Cc1sc(-c2ccn[nH]2)cc1NC(=O)CCc1ccccc1` had an RP-LC retention time of 966 s.

Compound `CCC1Oc2ccc(S(=O)(=O)N3CCC(C(=O)NCCc4ccccc4)CC3)cc2NC1=O` (stereo not drawn) showed an RP-LC retention time of 872 s.

As for `CCCNC(=O)c1nc(N2CCSCC2)c2cnn(C)c2n1`, the RP-LC retention time is 719 s.

In turn, `Cc1ccccc1-c1nc(-c2ccc3c(c2)nnn3C)no1` gave an RP-LC retention time of 1050 s.

Compound `CCN(CC)CCNc1ccc(CO)c2sc3ccccc3c(=O)c12` showed an RP-LC retention time of 646 s.

On to `CCc1nncn1C1CCN(C(=O)Nc2ccc(F)c(Cl)c2)C1` (stereo not drawn), for which the RP-LC retention time was 661 s.

Compound `Cc1ccc(F)cc1NC(=O)c1c(O)c2cccnc2n(-c2ccc(F)cc2)c1=O` came in with an RP-LC retention time of 1290 s.

Take `Cc1sc2ccn(C)c(=O)c2c1C(=O)NCc1ccccc1F`: the RP-LC retention time is 751 s.

`Cc1ccccc1-n1c(=O)c2sccc2n(Cc2nc(-c3ccc(C(F)(F)F)cc3)no2)c1=O` registered an RP-LC retention time of 1120 s.

(Values after the METLIN SMRT retention time set (Domingo-Almenara et al. 2019).)
